{"source": "patent EP4463162B1", "about": "“CONNEXIN 43 FOR USE IN TREATING BRCA1/2-MUTATED CANCER” (Fundación Profesor Novoa Santos, priority 2022, dated 2023)", "key": {"p21": {"tested_on": "p21", "assay": "Western blot against senescence marker p21", "format": "cell-based, human", "conditions": "Cx43_HCC1937, 96 h, 100 µM olaparib", "description": "Protein extracts were mixed with loading buffer, which consisted of 10 % (v/v) β-mercaptoethanol (Sigma-Aldrich), 10 % SDS, 50 % (v/v) glycerol, 200 mM Tris-HCl pH 6.8 and 0.1 % bromophenol blue (Sigma-Aldrich). They were boiled at 95 °C for 8 min and 20-30 µg protein were loaded into 8, 10 or 15 % acrylamide/bis-acrylamide self-made gels, depending on the molecular weight of the target protein/s to investigate. Gels were run at 80 V for approximately 2 h using a Mini-PROTEAN Tetra electrophoresis system (BioRad), and then transferred to methanol-preactivated polyvinylidene fluoride (PVDF) membranes (Millipore) at 100 V and 4 °C for 1-1.5 h with a Mini Trans-Blot Electrophoretic Transfer Cell (BioRad). Afterwards, membranes with the transferred proteins were stained with ATX Ponceau S red staining solution (Sigma-Aldrich) for 10 min at room temperature, photographed in an Amersham Imager 600 (GE Healthcare) and unstained with distilled water. They were then blocked for 1 h at room temperature with 5 % skim milk (Sigma-Aldrich) diluted in TBST buffer (Tris-buffered saline TBS composed of 20 mM Tris and 150 mM NaCl, supplemented with 0.05 % (v/v) Tween-20, Sigma-Aldrich) with shaking. […] Ponceau staining and western blot images were analysed and their band intensities quantitated with Image J software. […]"}, "[1]": {"tested_on": "poly(ADP-ribose) (PAR) polymer", "assay": "Global protein PARylation, western blot and immunofluorescence", "format": "cell-based, human", "conditions": "48 and 96 h, western blot", "description": "2 000-10 000 cells were plated on glass coverslips (Thermo Fisher Scientific) previously coated with poly-D-lysine hydrobromide (Sigma-Aldrich) and cultured until they were approximately 80 % confluent. They were washed with PBS, fixed with 4 % paraformaldehyde (PFA, Sigma-Aldrich) in PBS for 15 min at room temperature and rinsed twice with PBS. Next, cells were incubated with 0.1 M glycine (Sigma-Aldrich) in distilled water to quench PFA for 10 min at room temperature, and then their membranes were permeabilized with 0.2 % Triton X-100 (Sigma-Aldrich) in PBS for 10 min at room temperature. After two 5 min PBS washes, potential nonspecific antibody binding sites were blocked with 1 % bovine serum albumin (BSA; Sigma-Aldrich) diluted in PBST (PBS+0.1 % Tween 20; Sigma-Aldrich) for 30 min at room temperature. Cells were incubated overnight at 4 °C in the dark with primary antibody (see references in Table 3) diluted in 1 % BSA in PBST. […]\nProtein extracts were mixed with loading buffer, which consisted of 10 % (v/v) β-mercaptoethanol (Sigma-Aldrich), 10 % SDS, 50 % (v/v) glycerol, 200 mM Tris-HCl pH 6.8 and 0.1 % bromophenol blue (Sigma-Aldrich). […] Ponceau staining and western blot images were analysed and their band intensities quantitated with Image J software. […]"}}}
{"smiles": "O=C(c1cc(Cc2n[nH]c(=O)c3ccccc23)ccc1F)N1CCN(C(=O)C2CC2)CC1", "note": "[Olaparib, olaparib]", "values": [{"measurement": "senescence marker p21", "setting": "p21", "value": "significantly increased"}, {"measurement": "PAR levels", "setting": "[1]; Cx43_HCC1937, 50/100 µM olaparib", "value": "decreased"}, {"measurement": "PAR levels", "setting": "[1]; EV_HCC1937, 50/100 µM olaparib", "value": "rose"}]}
